Where no end group is shown, it is not given here.

Data set [1] has as its system apoptotic cells within Alzheimer's disease-affected brain tissues. Description: In vivo near infrared imaging of Alzheimer's disease model mice with Cy7.5-labeled peptide. Also noted: species or system mouse. The note with it: intravenous. From the text:
(§1) As an Alzheimer's disease model, a transgenic mouse model over-expressing Amyloid precursor protein (APP) gene and Presenilin 1 (PS1) gene was used. The model animal has a characteristic that apoptosis together with extracellular accumulation of beta amyloid protein (one of the characteristics of Alzheimer's disease) gradually increases according to an increase of age. On mice, from a 5 month old mouse (early stage of alzheimer's disease) to a 13 month old mouse (severe stage), this experiment was performed according to the progression of disease. The apoptosis was confirmed by TUNEL (in vitro terminal deoxynucleotidyl transferase-mediated dUTP nick-end labeling) assay according to the manufacturer (Roche)'s instructions. In this method, biotin-dUTP is labeled at the end of a cleaved DNA fragment specifically occurring in apoptosis by using terminal deoxynucleotidyl transferase enzyme, and then fluorescence staining is performed by streptavidin-rhodamine (red fluorescent dye).
The Alzheimer's disease-affected mouse (5, 7, 9, and […]) models were intravenously injected with the inventive peptide (ApoPep-1) labeled with Cy7.5 near infrared fluorescence, under isoflurane anesthesia, to a final concentration of 50 μM. After 2 hours from the injection, a head region was imaged by near infrared imaging, and each brain was isolated and imaged by near infrared imaging. An in vivo near infrared fluorescence image was imaged by an Optix exPlore machine (ART). Also, by using the machine's own software, each image was standardized.
The peptide used in the present invention was synthesized by a standard Fmoc method, and separated by HPLC machine. The synthesis of the peptide was carried out by special companies (Peptron and Anygen). The peptide was synthesized in such a manner that N-terminal was combined with fluorescein isothiacyanate (FITC). Otherwise, after the synthesis of the peptide, N-terminal was combined with Cy7.5 near infrared fluorescent dye.

In data set [2] the test system is apoptotic cells within Parkinson's disease-affected brain tissues. The data set can be described thus: In vivo near infrared imaging of MPTP-induced Parkinson's disease mice with Cy7.5-labeled peptide. Also noted: species or system mouse. The note with it: for near infrared fluorescence at the brain region: Cy7.5-labeled, intravenous, 2 hours. The procedure: (§2) Parkinson's disease was induced by specifically destroying a dopaminergic neuron existing in substantia nigra of a brain by a drug. For this, to each of C57BL male mice (koatech) (body weight: 21 to 23 g), MPTP (1-methyl-4-phenyl-1,2,3,6-tetrahydro pyridine hydrochloride) (Sigma) was administered with a single dose of 15 mg/kg. MPTP administration was carried out with an interval of 2 hours, four times through intraperitoneal injection, and each mouse was administered with MPTP in a total amount of 60 mg/kg.
(§3) On day 7, 14, and 21 from the administration of MPTP (day 0), the inventive peptide labeled with Cy7.5 was injected. The peptide was intravenously injected into a tail vein to a final concentration of 50 μM, under isoflurane anesthesia, and was circulated for 2 hours. Then, an in vivo near infrared fluorescence image was imaged. The mouse on which the experiment had been completed was immediately subjected to anesthesia and euthanasia. Then, a brain tissue sample was collected. From the dead mouse, blood was immediately removed by saline solution flushing through heart, and primarily fixed by re-flushing of 4% paraformaldehyde solution. The primarily fixed brain was collected from the mouse, and then postfixed by being placed for 1 day in 30% sucrose/phosphate buffer solution, and placed for 1 day in 4% paraformaldehyde phosphate buffer solution. The fixed brain tissues were rapidly frozen by dry ice, and formed into a block for frozen fractions. At some desired time, the stored brain block was prepared as frozen fractions, and used for various staining methods.

Data set [3] concerns Parkinson's disease-affected mouse treated with MPTP. The data set can be described thus: Monitoring the therapeutic effect of amantadine in MPTP-induced Parkinson's disease mice. It is filed as in vivo. The procedure:
as §2, §3
Also, in order to monitor the therapeutic effect of a drug, after 30 minutes from the administration of MPTP, amantadine used as a Parkinson's disease therapeutic agent was intraperitoneally administered into each mouse in a dose of 25 mg/kg a total of seven times with a one day interval. On day 7 from the administration of amantadine, the inventive peptide labeled with Cy7.5 was injected, and imaging and tissue staining were carried out in the same manner as described above. Apoptosis was analyzed in the same manner as described in Example <1-1>.

For data set [4], the system named is apoptotic cells within Alzheimer's disease-affected brain tissues. The data set can be described thus: Immunofluorescence staining analysis of Alzheimer's disease-affected brain tissues injected with FITC-labeled peptide. Conditions: frozen brain sections, Alzheimer's disease-affected mouse 13 months old. In kind it is in vivo. The procedure: For histological examination, the brain tissues isolated from the mouse (13 months old) injected with the inventive peptide labeled with FITC fluorescence (green), which had been subjected to in vivo imaging in Example <1-1>, were postfixed by 4% paraformaldehyde liquid, and immersed in Sucrose/phosphate buffer for 24 hours. Then, they were prepared as frozen sections with a thickness of 30 μm by cryostat. Immunofluorescence staining on an antibody was carried out by using a secondary antibody labeled with alexa 568 (red fluorescent dye). Each tissue slide was observed by a fluorescence microscope (Zeiss).

Data set [5] deals with apoptotic cells within Parkinson's disease-affected brain tissues. The data set can be described thus: Immunofluorescence / TUNEL staining of Parkinson's disease-affected brain tissues injected with FITC-labeled peptide. In kind it is in vivo, mouse.
Source text: as §1, with “The apoptosis was confirmed by TUNEL (in vitro terminal deoxynucleotidyl transferase-mediated dUTP nick-end labeling) assay according to the manufacturer (Roche)'s instructions.” left out
[…] Then, an in vivo near infrared fluorescence image was imaged. […]
Also, in order to monitor the therapeutic effect of a drug, after 30 minutes from the administration of MPTP, amantadine used as a Parkinson's disease therapeutic agent was intraperitoneally administered into each mouse in a dose of 25 mg/kg a total of seven times with a one day interval. […] Apoptosis was analyzed in the same manner as described in Example <1-1>.

[6] abbreviates: Parkinson's disease-affected mouse (MPTP), 50 μM final.
Setting [7] is: amantadine following MPTP vs MPTP alone, brain tissues.

For the compound “control peptide: control peptide (amino acid sequence, NSSSVDK) [reference compound]”, in data set [1] (mouse (8 months old), Cy7.5-labeled, 2 hours after injection), the “near infrared fluorescence at brain region” value was “hardly observed”. In addition, the “near infrared fluorescence at the brain region” value in data set [2] (setting [6]) is “hardly observed”.

As for `NC12CC3CC(CC(C3)C1)C2` [amantadine], the “near infrared fluorescence of Cy7.5-labeled inventive peptide at brain region” value in data set [3] (amantadine 25 mg/kg intraperitoneal, seven times at one day interval following MPTP, vs mouse administered with MPTP) is listed as “lower near infrared fluorescence than the mouse administered with MPTP”. In addition, the “number of TUNEL-stained apoptotic cells” value in data set [3] (amantadine following MPTP vs MPTP alone) is on record as “reduction of apoptosis in neurons”. Further, in data set [3] (setting [7]), the “TUNEL staining (apoptosis biomarker)” value is listed as “decrease of TUNEL staining” and the “antibody staining of tyrosine hydroxylase (TH) (dopaminergic neuron-specific marker)” value is “increase of antibody staining of tyrosine hydroxylase”. The “number of TH-stained dopaminergic neurons” value in data set [3] (amantadine following MPTP vs MPTP alone, p<0.01) is listed as “statistically significantly increased”.

Regarding “inventive peptide: peptide targeting apoptotic cells, amino acid sequence CQRPPR (SEQ ID NO: 1), named ApoPep-1; N-terminal labeled with FITC or Cy7.5 (also: N-terminal FITC or Cy7.5 label)”, the “near infrared fluorescence intensity level at head region according to disease progression” value in data set [1] (APP/PS1 Alzheimer's disease-affected mice 5, 7, 9, 13 months old, Cy7.5-labeled, 50 μM final, 2 hours after injection) was “near infrared fluorescence intensity level increased”. Moreover, the “near infrared fluorescence at the brain region, Alzheimer's disease-affected mouse versus normal mouse” value in data set [1] (Alzheimer's disease-affected mouse (7 and 9 months old) vs normal (wild type) mouse (8 months old), 2 hours) is “much stronger near infrared fluorescence at the brain region than the normal mouse”. Further, in data set [4], the “co-staining of peptide (green) with antibody to Caspase-3 (apoptosis biomarker)” value is “concurrently stained at the same cell”. In addition, the “distribution of peptide relative to brain blood vessel (α-SMA antibody staining); passing through blood-brain barrier” value in data set [4] is “distributed within brain parenchyma outside of a brain blood vessel”. Further, the figures for the “near infrared fluorescence at the brain region” value in data set [2] (setting [6]) and in data set [2] (normal (wild type) mouse) were “strong near infrared fluorescence was observed” and “hardly observed”, respectively. In addition, the “near infrared fluorescence at a brain region with the lapse of time” value in data set [2] (after 1 week, 2 weeks and 3 weeks from administration of MPTP) was “became stronger”. The “co-location of peptide (green) with TUNEL staining (apoptosis biomarker)” value in data set [5] (brain tissues of MPTP mice and mice administered with amantadine following MPTP (FIG. 7c)) was “located at the same cell”; in data set [5] (brain tissues of Parkinson's disease-affected mouse treated with MPTP, FITC-labeled peptide) it was “concurrently located at the same cell”.

For the origin of these results see patent publication US8900551B2, “Peptide which passes through blood-brain barrier and targets apoptosis of neurodegenerative brain disease site and uses thereof” (Kyungpook National University Industry-Academic Cooperation …, priority 2009, dated 2014).
